{"source": "patent US5298626A", "about": "“Select cyclopent[b]indoles” (priority 1992, dated 1994)", "key": {"α2-receptor": {"target": "α2-receptor", "assay": "3H-Clonidine Binding: α2-Receptor", "design": "species or system rat (male Wistar)", "conditions": "3 nM 3H-clonidine, rat cortical tissue, pH 7.7", "protocol": "See references 1, 2 and 3 cited below. The interaction of a compound with central α2 -receptors is assessed in the ^3 H-clonidine binding assay.\n2. Tris buffer containing physiological ions\n3. [4-^3 H]-Clonidine hydrochloride (20-30 Ci/mmol) is obtained from New England Nuclear.\n4. Clonidine-HCl is obtained from Boehringer Ingelheim. A stock solution of 0.1 mM clonidine is made up to determine nonspecific binding. This yields a final concentration of 1 μM in the assay (20 μl to 2 ml).\nMale Wistar rats are sacrificed by decapitation and the cortical tissue rapidly dissected. The tissue is homogenized in 50 volumes of 0.05M Tris buffer, pH 7.7 (buffer 1b) with the Brinkman Polytron, then centrifuged at 40,000 g for 15 minutes. The supernatant is discarded and the pellet re-homogenized in the original volume of 0.05M Tris buffer, pH 7.7 and re-centrifuged as before. The supernate is discarded and the final pellet re-homogenized in 50 volumes of buffer 2b. This tissue suspension is then stored on ice. The final tissue concentration is […]. Specific binding is 1% of the total added ligand and 80% of total bound ligand.\n100 μl--0.5M Tris-physiological salts, pH 7.7 (buffer 2a)\n20 μl--Vehicle (for total binding) or 0. 1 mM clonidine (for nonspecific binding) or appropriate drug concentration\n50 μl--^3 H-clonidine stock\n1000 μl tissue suspension\nTissue homogenates are incubated for 20 minutes at […] with 3 nM 3 H-clonidine and varying drug concentrations, and thereafter immediately filtered under reduced pressure on Whatman GF/B filters. The filters are washed with three five ml volumes of ice-cold 0.05M Tris buffer, pH 7.7, and thereafter transferred to scintillation vials. Ten ml of Liquiscint counting solution is added to each sample which is then counted by liquid scintillation spectroscopy. Specific clonidine binding is defined as the difference between total bound and […]. The percent inhibition at each drug concentration is the mean of triplicate determinations."}, "MAO-B": {"target": "T1, MAO-B (Rattus norvegicus, UniProt P19643)", "T1 construct": "served as the tissue source for mitochondrial MAO; from tissue; host or cells: whole brain minus cerebellum of male Wistar rats, P2 pellet (18,000 g)", "T1 sequence (P19643 1-520)": "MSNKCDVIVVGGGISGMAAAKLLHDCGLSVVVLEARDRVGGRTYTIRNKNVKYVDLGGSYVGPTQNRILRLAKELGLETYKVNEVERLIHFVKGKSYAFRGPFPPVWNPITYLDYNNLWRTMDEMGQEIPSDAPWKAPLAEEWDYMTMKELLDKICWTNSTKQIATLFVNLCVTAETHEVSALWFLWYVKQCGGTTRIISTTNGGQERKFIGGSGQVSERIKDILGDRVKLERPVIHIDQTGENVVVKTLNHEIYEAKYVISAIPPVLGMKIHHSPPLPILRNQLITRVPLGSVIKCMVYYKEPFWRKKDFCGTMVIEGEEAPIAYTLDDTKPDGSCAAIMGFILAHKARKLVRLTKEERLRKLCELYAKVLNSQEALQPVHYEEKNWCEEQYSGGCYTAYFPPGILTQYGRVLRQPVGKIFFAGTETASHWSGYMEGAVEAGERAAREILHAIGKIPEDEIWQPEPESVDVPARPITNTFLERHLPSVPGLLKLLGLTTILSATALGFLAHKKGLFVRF", "assay": "biochemical", "design": "species or system rat (male Wistar)", "description": "Activity in Rat Brain Synaptosomes\n(§1) To determine the selective inhibition of the two forms of monoamine oxidase (MAO).\nAlthough various methods for measuring MAO activity are available, the described method involves the extraction of the radiolabeled deaminated metabolites of [^3 H]-5HT or [^14 C]-β-phenethylamine. This procedure allows MAO-A and MAO-B activities to be measured either simultaneously or individually (3).\nA 5 mM stock solution is made up in 0.01N HCl. This is used to dilute the specific activity of the [^14 C]-PEA. b. β-[ethyl-1-^14 C]-phenethylaminehydrochloride(40-50 mCi/mmol) is obtained from New England Nuclear. c. Add 12 μl of [^14 C]-PEA to 2 ml of the 5 mM PEA solution. (Final amine concentration in the assay is 200 μM: see below.)\nEqual amounts of MAO-A (5HT) and MAO-B (PEA) substrates are combined for simultaneously testing both MAO types, i.e. mixed stock solution of 2.5 mM 5HT and 2.5 mM PEA, 40 μl of this mixed solution gives a 200 μM final concentration of each amine in the assay. When testing only one MAO type, the individual 5 mM stock solutions must be diluted 1: 1 with distilled water prior to adding 40 μl to the incubation mixture; i.e., same 200 μM final amine concentration.\n(§2) Male Wistar rats weighting 15-250 grams were sacrificed an removed. Whole brain minus cerebellum was homogenized in 30 volumes of ice-cold, phosphate-buffered 0.25M sucrose, using a Potter-Elvejhem homogenizer. The homogenate as centrifuged at 1000 g for 10 minutes and the supernatant (S1) decanted and recentifuged at 18,000 g for 20 minutes. […]\n(§3) Tubes are preincubated for 15 minutes at 37° C. and the assay is started by adding 40 μl of combined substrate ([^3 H]-5HT and [^14 C]-PEA) at 15 second intervals. […] Tissue blank values are determined by adding the acid before the radioactive substrate. […] 10 ml of Liquiscint is added and the samples are counted using window settings for in ^14 C in one channel and ^3 H in the second channel. IC50 values are determined by log-probit analysis."}, "MAO-A": {"target": "T2, MAO-A (Rattus norvegicus, UniProt P21396)", "T2 construct": "served as the tissue source for mitochondrial MAO; from tissue; host or cells: whole brain minus cerebellum of male Wistar rats, P2 pellet (18,000 g)", "T2 sequence (P21396 1-526)": "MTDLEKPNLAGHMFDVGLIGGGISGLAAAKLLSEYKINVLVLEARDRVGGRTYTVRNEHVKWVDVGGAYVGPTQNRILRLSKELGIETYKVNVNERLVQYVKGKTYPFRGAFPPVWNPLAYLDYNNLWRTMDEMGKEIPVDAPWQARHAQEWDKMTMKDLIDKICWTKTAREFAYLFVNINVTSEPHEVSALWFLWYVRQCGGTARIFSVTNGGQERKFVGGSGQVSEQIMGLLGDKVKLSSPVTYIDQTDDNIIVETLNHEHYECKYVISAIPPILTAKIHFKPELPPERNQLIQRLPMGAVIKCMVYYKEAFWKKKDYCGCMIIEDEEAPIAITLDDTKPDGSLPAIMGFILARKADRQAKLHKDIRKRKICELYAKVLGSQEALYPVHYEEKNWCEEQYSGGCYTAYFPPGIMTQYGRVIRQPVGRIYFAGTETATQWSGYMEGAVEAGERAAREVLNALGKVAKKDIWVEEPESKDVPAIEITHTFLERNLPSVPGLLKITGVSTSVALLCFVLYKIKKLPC", "assay": "biochemical", "design": "species or system rat (male Wistar)", "description": "Inhibition of Type A and Type B Monoamine Oxidase\nActivity in Rat Brain Synaptosomes\nas §1\nAlthough various methods for measuring MAO activity are available, the described method involves the extraction of the radiolabeled deaminated metabolites of [^3 H]-5HT or [^14 C]-β-phenethylamine.\na. Serotonin creatine SO4 (5HT) is obtained from Sigma Chemical Company. A 5 mM stock solution is made up in 0.01N HCl. This is used to dilute the specific activity of the [^3 H]-5HT. b. [^3 H]-5-Hydroxytryptamine binoxalate (20-30 Ci/mmol) is obtained from New England Nuclear. c. Add 12 μl of [^3 H]-5HT to 2 ml of the 5 mM 5HT solution. (Final amine concentration in the assay is 200 μM: see below.)\n5. Equal amounts of MAO-A (5HT) and MAO-B (PEA) substrates are combined for simultaneously testing both MAO types, i.e. mixed stock solution of 2.5 mM 5HT and 2.5 mM PEA, 40 μl of this mixed solution gives a 200 μM final concentration of each amine in the assay. When testing only one MAO type, the individual 5 mM stock solutions must be diluted 1: 1 with distilled water prior to adding 40 μl to the incubation mixture; i.e., same 200 μM final amine concentration.\nas §2, §3"}, "[1]": {"tested_on": "Scopolamine Induced Memory Deficit", "format": "in vivo, mice", "protocol": "In this assay mice are tested for their ability to remember an unpleasant stimulus for a period of 24 hours. A mouse is placed in a chamber that contains a dark compartment; a strong incandescent light drives it to the dark compartment, where an electric shock is administered through metal plates on the floor. The animal is removed from the testing apparatus and tested again, 24 hours later, for the ability to remember the electric shock.\nIf scopolamine, an anticholinergic that is known to cause memory impairment, is administered before an animal's initial exposure to the test chamber, the animal re-enters the dark compartment shortly after being placed in the test chamber 24 hours later. This effect of scopolamine is blocked by an active test compound, resulting in a greater interval before re-entry into the dark compartment.\nThe results for an active compound are expressed as the percent of a group of animals in which the effect of scopolamine is blocked, as manifested by an increased interval between being placed in the test chamber and re-entering the dark compartment."}, "[2]": {"target": "T3, Brain AChE (acetylcholinesterase) (Rattus norvegicus, UniProt P37136)", "T3 construct": "corpora striata dissected free, weighed and homogenized in 19 volumes; from tissue; host or cells: corpora striata of male Wistar rats, whole homogenate", "T3 sequence (P37136 32-614)": "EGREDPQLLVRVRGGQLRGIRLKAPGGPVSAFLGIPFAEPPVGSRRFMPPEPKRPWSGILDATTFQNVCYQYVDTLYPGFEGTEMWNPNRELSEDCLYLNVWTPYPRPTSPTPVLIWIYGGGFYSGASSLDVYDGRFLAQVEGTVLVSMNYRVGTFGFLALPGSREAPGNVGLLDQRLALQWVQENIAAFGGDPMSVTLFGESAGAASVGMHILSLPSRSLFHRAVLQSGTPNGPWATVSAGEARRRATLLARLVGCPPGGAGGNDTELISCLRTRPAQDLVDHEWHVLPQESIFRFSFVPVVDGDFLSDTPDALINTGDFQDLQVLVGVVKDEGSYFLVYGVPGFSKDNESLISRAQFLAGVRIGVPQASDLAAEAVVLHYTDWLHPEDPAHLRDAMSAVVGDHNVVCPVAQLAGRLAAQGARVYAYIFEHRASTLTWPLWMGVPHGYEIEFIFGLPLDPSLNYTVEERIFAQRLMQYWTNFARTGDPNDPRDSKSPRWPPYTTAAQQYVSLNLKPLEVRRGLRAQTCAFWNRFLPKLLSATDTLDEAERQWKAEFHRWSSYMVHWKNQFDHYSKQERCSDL", "assay": "biochemical", "design": "species or system rat (male Wistar)", "conditions": "rat striatum, read-out: Inhibitory Concentration, IC50", "protocol": "Cholinesterases are found throughout the body, both in the brain and in serum.\nIn Vitro Inhibition of Acetylcholinesterase Activity in Rat Striatum\nThe method described below was used in this invention for assaying cholinesterase activity. This is a modification of the method of Ellman et al., Biochem. Pharmacol. 7, 88 (1961).\n1. 0.05M Phosphate buffer, pH 7.2\n4. A 2 mM stock solution of the test drug is made up in a suitable solvent and q.s. to volume with 0.5 mM DTNB (reagent 3). […] If active, IC50 values are determined from the inhibitory activity of subsequent concentrations.\nMale Wistar rats are decapitated, brains rapidly removed, corpora striata dissected free, weighed and homogenized in 19 volumes (approximately 7 mg protein/ml) of 0.05M phosphate buffer, pH 7.2 using a Potter-Elvehjem homogenizer.\nEnzyme activity is measured with the Beckman DU-50 spectrophotometer. This method can be used for IC50 determinations and for measuring kinetic constants.\nBlank values are determined for each run to control for non-enzymatic hydrolysis of substrate and these values are automatically subtracted by the kindata program available on kinetics soft-pac module. This program also calculates the rate of absorbance change for each cuvette.\nSubstrate concentration is 10 mM diluted 1:2 in assay yielding final concentration of 5 mM. […] IC50 values are calculated from log-probit analysis"}, "[3]": {"tested_on": "monoamine oxidase type A and type B", "conditions": "literature, reference (2); cited from earlier work"}}, "note": "pIC50: −log10 of the molar value. Values joined by “and” are separate entries in the source; they are usually repeats but may differ in a detail not shown here. Equal entries are not always repeated. Where two headings read alike, the source gives them in different places."}
{"compound": "NC1CCC2c3ccccc3NC12", "note": "(stereo not shown) [1,2,3,3a,4,8b-Hexahydrocyclopent[b]indol-3-amine 2-naphthalene sulfonate hemihydrate]", "values": [{"measurement": "pIC50", "setting": "α2-receptor", "value": 5.90}]}
{"compound": "C#CCNC1CCc2c1[nH]c1ccccc21", "note": "(stereo not shown) [1,2,3,4-Tetrahydrocyclopent[b]indol-3-(2-propynyl)amine]", "values": [{"measurement": "pIC50", "setting": "MAO-B; substrate [14C]-PEA, 200 μM, read-out: Inhibitory Concentration - IC50, MAO-B", "value": 6.49}, {"measurement": "pIC50", "setting": "MAO-A; substrate [3H]-5HT, 200 μM, read-out: Inhibitory Concentration - IC50, MAO-A", "value": 6.54}]}
{"compound": "CNC(=O)Oc1ccc2c(c1)c1c(n2C)C(NC2CC2)CC1", "note": "(stereo not shown) [3-(N-Cyclopropyl)amino-4-methyl-1,2,3,4-tetrahydrocyclopent[b]indol-7-yl methylcarbamate]", "values": [{"measurement": "% of Animals with Scopolamine Induced Memory Deficit Reversal", "setting": "[1]; 0.63 mg/kg of body weight, s.c., retest at 24 hours", "value": 27, "unit": "%"}, {"measurement": "% of Animals with Scopolamine Induced Memory Deficit Reversal", "setting": "[1]; 2.5 mg/kg of body weight, s.c., retest at 24 hours", "value": 33, "unit": "%"}, {"measurement": "pIC50", "setting": "MAO-B", "value": 6.38}, {"measurement": "pIC50", "setting": "[2]", "value": 5.46}, {"measurement": "pIC50", "setting": "MAO-A", "value": 6.49}]}
{"compound": "CNC(=O)Oc1ccc2c(c1)c1c(n2C)C(=NC2CC2c2ccccc2)CC1", "note": "(stereo not shown) [4-Methyl-3-[(2-phenylcyclopropyl)imino]-1,2,3,4-tetrahydrocyclopent[b]indol-7-yl methylcarbamate]", "values": [{"measurement": "pIC50", "setting": "MAO-B", "value": 5.43}, {"measurement": "pIC50", "setting": "MAO-A", "value": 4.82}]}
{"compound": "Cn1c2c(c3ccccc31)CCC2N", "note": "(stereo not shown) [4-methyl-1,2,3,4-tetrahydrocyclopent[b]indol-3-amine]", "values": [{"measurement": "pIC50", "setting": "α2-receptor", "value": 5.83}]}
{"compound": "CNC(=O)Oc1ccc2c(c1)c1c(n2C)C(NCc2ccccc2)CC1", "note": "(stereo not shown) [4-methyl-3-phenylmethylamino-1,2,3,4-tetrahydrocyclopent[b]indol-7-yl methylcarbamate]", "values": [{"measurement": "pIC50", "setting": "[2]", "value": "5.96 and 5.21"}]}
{"compound": "Cn1c2c(c3cc(O)ccc31)CCC2=NCc1ccccc1", "note": "[4-methyl-3-phenylmethylimino-1,2,3,4-tetrahydrocyclopent[b]indol-7-ol]", "values": [{"measurement": "pIC50", "setting": "α2-receptor", "value": 6.07}]}
{"compound": "CN(C)CCC=C1c2ccccc2CCc2ccccc21", "note": "[Amitriptyline, reference compound]", "values": [{"measurement": "pIC50", "setting": "α2-receptor", "value": 5.41}]}
{"compound": "C#CCN(C)CCCOc1ccc(Cl)cc1Cl", "note": "[Clorgyline]", "values": [{"measurement": "selectivity for type A / type B monoamine oxidase", "setting": "[3]", "value": "selective inhibitor of the type A enzyme"}]}
{"compound": "CC[C@@H]1C(=O)OC[C@@H]1Cc1cncn1C", "note": "[Pilocarpine, reference compound]", "values": [{"measurement": "% of Animals with Scopolamine Induced Memory Deficit Reversal", "setting": "[1]; 5.0 mg/kg of body weight, s.c., retest at 24 hours", "value": 13, "unit": "%"}]}
{"compound": "Nc1c2c(nc3ccccc13)CCCC2", "note": "[Tacrine, reference compound]", "values": [{"measurement": "% of Animals with Scopolamine Induced Memory Deficit Reversal", "setting": "[1]; mouse, in vivo", "value": 13, "unit": "%"}]}
{"compound": "CC(C)NNC(=O)c1ccncc1", "note": "[iproniazid]", "values": [{"measurement": "selectivity for type A / type B monoamine oxidase", "setting": "[3]", "value": "nonselective inhibitors"}]}
{"compound": "C#CCN(C)Cc1ccccc1", "note": "[pargyline]", "values": [{"measurement": "selectivity for type A / type B monoamine oxidase", "setting": "[3]", "value": "selective inhibitors of the type B enzyme"}]}
